In patent publication US10538554B2, “Peptides and uses therefor as antiviral agents” (priority 2015, dated 2020):
Where two headings read alike, the source gives them in different places. Bridge positions count the residues as written; N and C are the ends. Square brackets hold non-standard residues; d marks the D form. Peptide text beside a SMILES is read from it.

How the values were obtained:
[1] = system: H9N2 A/Iran/16/2000; conditions: 48 h
[2] = system: avian influenza A virus H9N2; conditions: cited from earlier work
[3] = system: H1N1 A/PR/8/1934; assay: microbe, parasite or virus in culture; conditions: Influenza A virus, MDCK, read-out: IC50 PR8
[4] = system: H1N1 A1/Malaysia/302/1954; conditions: A1/Malaysia/302/1954, 48 h
[5] = system: H3N8 A/Miami/2/63; conditions: A/Miami/2/63, 48 h
[6] = system: H3N2 A/HK/8/1968; conditions: A/HK/8/1968, 48 h
[7] = system: H1N1 A/NY/18/2009; conditions: A/NY/18/2009, 48 h; for % Inhibition Pdm 2009: 10 μM
[8] = system: H1N1 A/PR/8/1934; conditions: A/PR/8/1934, 48 h; for % Inhibition PR/8: 10 μM
[9] = system: H5N1 A/Kampung pasir/5744/2004; conditions: A/Kampung pasir/5744/2004, 48 h

## C[C@@H](O)[C@@H]1NC(=O)[C@H](CCCCN)NC(=O)[C@H](CO)NC(=O)[C@H](CCCNC(=N)N)NC(=O)[C@H](Cc2ccccc2)NC(=O)[C@H](CC(=O)O)NC(=O)[C@H](CC(N)=O)NC(=O)[C@@H](N)CSSC[C@@H](C(=O)O)NC1=O [C-P1, H-CNDFRSKTC-OH, reference compound] (H-CNDFRSKTC-OH; disulfide 1-9)
[1]
  IC50: > 320000 nM
[2]
  inhibition of avian influenza A virus H9N2 replication: modest efficacy

## CCC(CC)O[C@@H]1C=C(C(=O)O)C[C@H](N)[C@H]1NC(C)=O [Oseltamivir acid]
[3]
  IC50: 140 nM

## CC[C@@H](C)[C@H]1NC(=O)[C@@H](Cc2ccccc2)NC(=O)[C@@H](CCCNC(=N)N)NC(=O)[C@@H](Cc2ccccc2)NC(=O)[C@@H](Cc2c[nH]c3ccccc23)NC(=O)[C@@H]([C@H](C)O)NC(=O)[C@H](NC(=O)[C@H](CCCCN)NC(=O)[C@H](CCCCN)NC(=O)[C@H](CCCNC(=N)N)NC(=O)[C@@H](N)CCCNC(=N)N)CSSC[C@H](C(=O)O)NC(=O)[C@@H](CC(N)=O)NC1=O [PSP III B5, H-RRKKctwfrfinc-OH] (H-RRKK[dC][dT][dW][dF][dR][dF][dI][dN][dC]-OH; disulfide 5-13)
[1]
  IC50: 900 nM
[1]; 10 μM
  % inhibition H9N2: 76%
[1]; 50 μM
  % inhibition H9N2: 90%
[4]
  IC50: 1600 nM
[4]; 10 μM
  % inhibition H1N1: 80%
[4]; 50 μM
  % inhibition H1N1: 96%
[5]
  IC50: 150 nM
[5]; 10 μM
  % inhibition H3N8: 92%
[5]; 50 μM
  % inhibition H3N8: 100%
[6]
  IC50: 1400 nM
[6]; 10 μM
  % inhibition H3N2: 87%
[6]; 50 μM
  % inhibition H3N2: 100%
[7]
  IC50: 1170 nM
  % Inhibition Pdm 2009: 73%
[8]
  IC50: 1200 nM
  % Inhibition PR/8: 88%
[9]
  IC50: 220 nM

## CC[C@@H](C)[C@H]1NC(=O)[C@@H](Cc2ccccc2)NC(=O)[C@@H](Cc2ccccc2)NC(=O)[C@@H](Cc2ccccc2)NC(=O)[C@@H](Cc2c[nH]c3ccccc23)NC(=O)[C@@H]([C@H](C)O)NC(=O)[C@H](NC(=O)[C@H](CCCCN)NC(=O)[C@H](CCCCN)NC(=O)[C@H](CCCNC(=N)N)NC(=O)[C@@H](N)CCCNC(=N)N)CSSC[C@H](C(=O)O)NC(=O)[C@@H](CC(N)=O)NC1=O [PSP IV A5, H-RRKKctwfffinc-OH] (H-RRKK[dC][dT][dW][dF][dF][dF][dI][dN][dC]-OH; disulfide 5-13)
[1]
  IC50: 760 nM
[1]; 10 μM
  % inhibition H9N2: 93%
[4]
  IC50: 300 nM
[4]; 10 μM
  % inhibition H1N1: 99%
[5]
  IC50: 300 nM
[5]; 10 μM
  % inhibition H3N8: 98%
[6]
  IC50: 300 nM
[6]; 10 μM
  % inhibition H3N2: 99%
[7]
  IC50: 1000 nM
  % Inhibition Pdm 2009: 98%
[8]
  IC50: 400 nM
  % Inhibition PR/8: 99%
[9]
  IC50: 550 nM
